Like-named read-outs stand apart in the source and are kept apart here.
Columns and labels:
[1] = system: S. aureus (MRSA) biofilms; assay: in vitro biofilm disruption assay, bacterial; type: cell-based; details: Staphylococcus aureus, 24 h
Experimental: In vitro biofilm formation was tested using two assays, sustained inhibition and disruption. Both assays assess biofilm formed on polystyrene plates. The first, tests the effects of amino acid solution on a developing biofilm, while the latter tests the effects of the solution on a pre-formed mature biofilm, both compared to media without supplemented amino acids.
(§1) Other amino acids in the blood of animals could combat bacterial and fungal biofilm and therefore may be useful in treating these bacterial and fungal infections that would lie on the external surfaces of infected animals such as humans and could also be used to combat these pathogens on instruments and surfaces that need to be treated. Two types of biofilm assays were performed: a sustained inhibition assay and a disruption assay. The sustained inhibition assay assessed the compound's ability to prevent biofilm development throughout all stages of biofilm formation, while the disruption assay assessed the compound's ability to break up an existing mature biofilm.
(§2) For fungal biofilm assays, all solutions were prepared in RPMI 1640 medium. All bacterial biofilm solutions were prepared in Tryptic Soy Broth (TSB), supplemented with 1% glucose (henceforth referred to as TSB-G). All subsequent procedures were performed in a manner that maintained sterility. A solution of each amino acid to be tested was prepared in weight to volume concentrations ranging from 0.1-5.0%. Amino acids were also tested in combinations. Compound solutions were homogenized with gentle agitation in the dark (4° C., 24 hours) before use.
(§3) Bacterial strains were streaked on Blood Agar plates (5% sheep blood in Tryptic Soy Agar) and incubated at 37° C. for 24 hours. A single colony from each strain to be tested was inoculated in a TSB broth and grown for 12 hours, at 37° C. shaking at 225 rpm. For the bacterial biofilm inhibition assays, 1 μL of saturated overnight cell culture was added to either 80 μL of TSB-G, or TSB-G supplemented with the amino acid compound solution to be tested, in a 384-well plate. The cells were allowed to adhere to the plate for 60 minutes at 37° C. without shaking. The media was carefully aspirated and 80 μL of TSB-G, or TSB-G supplemented with the amino acid compound solution was added to the plate. The plate was further incubated for 24 hours at 37° C. without shaking. Media was carefully aspirated and the biofilm was measured by optical density at 600 nm. Eight or twelve replicates were performed for each tested condition and the reported values are normalized to the control (TSB-G media only). For the bacterial biofilm disruption assays, 80 μL of TSB-G was added to the plate, along with 1 μL of overnight cell culture. The cells were allowed to adhere to the plate for 60 minutes at 37° C. with no shaking. The media was carefully aspirated and 80 μL of TSB-G was added to the plate. The plate was further incubated for 24 hours at 37° C. with no shaking. Media was carefully aspirated from the mature biofilm and 80 μL of TSB-G, or TSB-G supplemented with the amino acid to be tested, was gently added to the plate. The plate was further incubated for 24 hours at 37° C. without shaking. Media was aspirated and the biofilm was measured by optical density at 600 nm. Twelve replicates were performed for each tested condition and the reported values are normalized to the control (TSB-G media only).
For disruption assay, 80 μl of TSB-G was added to the plate, along with 1 μl of overnight cell culture. The cells were allowed to adhere to the plate for 60 minutes at 37° C. with no shaking. The media was carefully aspirated and 80 μl of TSB-G was added to the plate. The plate was further incubated for 24 hours at 37° C. with no shaking. Media was carefully aspirated from the mature biofilm and 80 μl of TSB-G, or TSB-G supplemented with the amino acid to be tested, was added drop wise to the plate. The plate was further incubated for 24 hours at 37° C. with no shaking. […]

[2] = system: bacteria (S. aureus) biofilm and fungal (C. albicans) biofilm; assay: disruption biofilm assay, bacterial and fungal taken together; type: cell-based, Staphylococcus aureus; Candida albicans
Experimental: as §1, §2
Fungal strains were streaked on Yeast Peptone Dextrose (YPD) agar plates and incubated at 30° C. for 48 hours. A single colony from each strain to be tested was inoculated into YPD broth and grown for 12 hours, at 30° C., shaking at 225 rpm. For the fungal biofilm inhibition assay, 1 μl of saturated overnight cell culture was added to either 80 μL of RPMI-1640 or RPMI-1640 supplemented with the amino acid compound solution to be tested, in a 384-well plate. […] Media was carefully aspirated and the biofilm was measured by optical density at 600 nm. […] Media was carefully aspirated and the biofilm was measured by optical density at 600 nm. […]
Bacterial strains were streaked on Blood Agar plates (5% sheep blood in Tryptic Soy Agar) and incubated at 37° C. for 24 hours. […] Media was carefully aspirated and the biofilm was measured by optical density at 600 nm. […]

[3] = system: bacterial biofilms (MRSA); assay: biofilm assays (sustained inhibition and/or disruption), bacterial; type: cell-based, Staphylococcus aureus; details: Tables 4 and 5
Experimental: as §1, §2, §3

[4] = disruption, S. aureus, 1% amino acid, p<0.001, read-out: Reduce B Biofilm
[5] = disruption, bacterial and fungal biofilm, 1% amino acid

For `N[C@@H](CC(=O)O)C(=O)O` [Aspartic Acid, L-aspartic acid], the inhibition at 1 % [1, 4] was > 30%, the “Reduce Both” value [2, 5] was “●● (two dots [i.e. ●●] signifies major effect (greater than about 30% change))” and the “effect on MRSA biofilms in inhibition and disruption assays” value [3] was “both inhibited and disrupted”.
For `N[C@@H](CS)C(=O)O` [Cysteine, L-cysteine], the inhibition at 1 % [1, 4] was > 30%, the “Reduce Both” value [2, 5] was “●● (two dots [i.e. ●●] signifies major effect (greater than about 30% change))” and the “effect on MRSA biofilms in inhibition and disruption assays” value [3] was “both inhibited and disrupted”.
`N[C@@H](CCC(=O)O)C(=O)O` [Glutamic Acid, L-glutamic acid] was tested, and the inhibition at 1 % ([1]; read-out: Reduce B Biofilm) was > 30%, the “Reduce Both” value [2] was “● (a single dot [i.e. ●] signifies minor effect (from about 10 to about 30% change))” and the “effect on MRSA biofilms in inhibition and disruption assays” value [3] was “both inhibited and disrupted”.

Reference: US12226386B2, “Compositions and methods for treating biofilms” (The Regents of the University of California, priority 2018, dated 2025)
